# Like-named read-outs stand apart in the source and are kept apart here. Marks after values point to notes of the source that are not given here.
# Experiments:
# [1] = cited from earlier work
# [2] = Visual inspection on storage of sildenafil citrate with equal concentration of sucralose in pH adjusted 50% ethanol (Example 2); assay type: physicochemical
# Protocol: At room temperature, a phosphate buffer was prepared by weighing 3.9 g of NaH2PO4.2H2O into a 500 mL volumetric flask and adding approximately 300 mL of purified water until the phosphate fully dissolved. The pH was then adjusted to 7 with the introduction of NaOH and dilute to the requisite volume by the further addition of purified water.
# A 50% ethanol mixture was prepared by introducing either purified water, taken from a MilliQ™ unit or phosphate buffer, to equivalent volumes of Ph.Eur. grade absolute alcohol. The pH of the resultant mixture was then adjusted by using either NaOH 1N solutions and/or Sodium Citrate 1N solutions to reach predetermined pH values.
# Samples of sucralose were then dissolved in the pH adjusted 50% ethanol, whilst stirred with a magnetic stirrer and a needle, to a predetermined concentration. […] After preparation, the solutions were each filtered through PDVF 0.22 micro filter of 13 mm in size and placed in polypropylene containers of adequate volume.
# Before being placed on storage, and at time points 7 and 42 days, the concentration of sildenafil in the mixture was assayed using HPLC. The samples were then stored at either −20° C., 2-8° C. or 25° C. for periods of up to 42 days. Periodically, the samples were visually inspected for evidence of precipitation or crystallization. […]
# [3] = Maximum dissolution study in 50% aqueous ethanol, HPLC assay (Example 5); assay type: physicochemical; conditions: added until precipitation occurred, pH 5.5, NaOH
# Protocol: (§1) Before being placed on storage, and at time points 7, 42 days and 2 months, the concentration of sildenafil in the mixtures were assayed using HPLC. The samples were then stored at either −20° C., 2-8° C. or 25° C. for periods of up to 2 months. Periodically, the samples were visually inspected for evidence of crystallization.
# [4] = Maximum dissolution study in 50% aqueous ethanol, visual inspection (Example 5); assay type: physicochemical; conditions: pH 5.5, NaOH
# Protocol: as §1
# [5] = tablets or oral suspension; cited from earlier work
# [6] = EMEA CHMP Assessment Report for VIZARSIN
# [7] = Jordanian Pharmaceutical Manufacturing Co.
smiles,measurement,setting,value
"CCCc1nn(C)c2c(=O)nc(-c3cc(S(=O)(=O)N4CCN(C)CC4)ccc3OCC)[nH]c12.O=C(O)CC(O)(CC(=O)O)C(=O)O [sildenafil citrate, 1-[[3-(4,7-Dihydro-1-methyl-7-oxo-3-propyl-1H-pyrazolo[4,3-d]pyrimidin-5-yl)-4-ethoxyphenyl]sulfonyl]-4-methylpiperazine citrate salt]",solubility in acetone,[1]; [6],insoluble
same,solubility in chloroform,[1]; [6],insoluble
same,solubility in dimethyl sulfoxide (DMSO),[1]; [6],soluble
same,solubility in ethanol,[1]; [6],insoluble
same,solubility in methanol,[1]; [6],soluble
same,solubility in ethanol,[1]; [7],~1000 µg/mL
same,times less soluble in ethanol than in water,[1]; [7],about 3.5 times
same,visual inspection for precipitation or crystallization,"[2]; 15 mg/ml, pH 5.0, Sodium Citrate, 2-8° C.",Prec.
same,visual inspection for precipitation or crystallization,"[2]; 15 mg/ml, pH 5.0, Sodium Citrate, 25° C.",Prec.
same,visual inspection for precipitation or crystallization,"[2]; 15 mg/ml, pH 5.0, Sodium Citrate, −20° C.",Prec.
same,visual inspection for precipitation or crystallization,"[2]; 15 mg/ml, pH 5.2, NaOH, −20° C.",Prec.
same,visual inspection for precipitation or crystallization,"[2]; 15 mg/ml, pH 6.01, NaOH, 50% ethanol/phosphate buffer, 2-8° C.",Prec.
same,visual inspection for precipitation or crystallization,"[2]; 15 mg/ml, pH 6.01, NaOH, 50% ethanol/phosphate buffer, −20° C.",Prec.
same,visual inspection for precipitation or crystallization,"[2]; 15 mg/ml, pH 6.2, NaOH, 2-8° C.",Prec.
same,visual inspection for precipitation or crystallization,"[2]; 15 mg/ml, pH 6.2, NaOH, 25° C.",Prec.
same,visual inspection for precipitation or crystallization,"[2]; 15 mg/ml, pH 6.2, NaOH, −20° C.",Prec.
same,visual inspection for precipitation or crystallization,"[2]; 15 mg/ml, pH 6.2, Sodium Citrate, 2-8° C.",Prec.
same,visual inspection for precipitation or crystallization,"[2]; 15 mg/ml, pH 6.2, Sodium Citrate, −20° C.",Prec.
same,visual inspection for precipitation or crystallization,"[2]; 18 mg/ml, pH 5.2, NaOH, −20° C.",Prec.
same,visual inspection for precipitation or crystallization,"[2]; 18 mg/ml, pH 5.2, Sodium Citrate, −20° C.",Prec.
same,visual inspection for precipitation or crystallization,"[2]; 18 mg/ml, pH 6.0, NaOH, 50% ethanol/phosphate buffer, 2-8° C.",Prec.
same,visual inspection for precipitation or crystallization,"[2]; 18 mg/ml, pH 6.0, NaOH, 50% ethanol/phosphate buffer, −20° C.",Prec.
same,visual inspection for precipitation or crystallization,"[2]; 18 mg/ml, pH 6.0, Sodium Citrate, 2-8° C.",Prec.
same,visual inspection for precipitation or crystallization,"[2]; 18 mg/ml, pH 6.0, Sodium Citrate, −20° C.",Prec.
same,visual inspection for precipitation or crystallization,"[2]; 18 mg/ml, pH 6.2, NaOH, 2-8° C.",Prec.
same,visual inspection for precipitation or crystallization,"[2]; 18 mg/ml, pH 6.2, NaOH, 25° C.",Prec.
same,visual inspection for precipitation or crystallization,"[2]; 18 mg/ml, pH 6.2, NaOH, −20° C.",Prec.
same,visual inspection for precipitation or crystallization,"[2]; 21 mg/ml, pH 5.29, NaOH, 50% ethanol/phosphate buffer, −20° C.",Prec.
same,visual inspection for precipitation or crystallization,"[2]; 21 mg/ml, pH 5.5, NaOH, −20° C.",Prec.
same,visual inspection for precipitation or crystallization,"[2]; 21 mg/ml, pH 5.5, Sodium Citrate, −20° C.",Prec.
same,visual inspection for precipitation or crystallization,"[2]; 21 mg/ml, pH 5.6, NaOH, 50% ethanol/phosphate buffer, 2-8° C.",Prec.
same,visual inspection for precipitation or crystallization,"[2]; 21 mg/ml, pH 5.6, NaOH, 50% ethanol/phosphate buffer, −20° C.",Prec.
same,visual inspection for precipitation or crystallization,"[2]; 21 mg/ml, pH 5.8, NaOH, 2-8° C.",Prec.
same,visual inspection for precipitation or crystallization,"[2]; 21 mg/ml, pH 6.01, NaOH, 50% ethanol/phosphate buffer, 2-8° C.",Prec.
same,visual inspection for precipitation or crystallization,"[2]; 21 mg/ml, pH 6.01, NaOH, 50% ethanol/phosphate buffer, −20° C.",Prec.
same,Day 0 concentration sildenafil,[3]; with sucralose (second sample),82.79* mg/ml
same,Day 0 concentration sildenafil,[3]; with sucralose (third sample),123.95* mg/ml
same,Day 0 concentration sildenafil,[3]; without sucralose (first sample),51.65 mg/mL
same,visual inspection for crystallization,"[4]; Day 0 51.65 mg/ml, without sucralose, 2-8° C.",Prec.
same,visual inspection for crystallization,"[4]; Day 0 51.65 mg/ml, without sucralose, −20° C.",Prec.
same,visual inspection for crystallization,"[4]; Day 0 82.79 mg/ml, with sucralose, 2-8° C.",Prec.
same,visual inspection for crystallization,"[4]; Day 0 82.79 mg/ml, with sucralose, −20° C.",Prec.
same,visual inspection for crystallization,"[4]; Day 0 123.95 mg/ml, with sucralose, 25° C. (single cell in the row)",Prec.
same,absolute bioavailability,[5],about 41%
